Test results from US20120283099A1, “CONTROLLING PLANTHOPPERS” (priority 2011, published 2012).
Several values for one entry are separate records, joined by “and”; a condition that tells them apart may be missing. Equal entries are not always repeated.

Test system: brown planthoppers, Nilaparvata lugens
Assay: Field efficacy on brown planthopper in transplanted rice (small-plot trials A-D)
Assay type: in vivo
Details: Sulfoxaflor 50 g/ha, Buprofezin 100 g/ha, mixture 50 + 100 g/ha
Experimental: Applications were made to transplanted rice, Oryza sativa, using small-plot efficacy methods. Chemicals were diluted in water and all treatments were applied using a backpack sprayer calibrated to deliver 500 liters of spray solution per hectare. Experimental plots measured 5 by 10 meters and each treatment was replicated three times in each trial. At the specified intervals after treatment, brown planthoppers, Nilaparvata lugens, were counted in 10 randomly selected hills per plot. Data were transformed to percent control relative to the untreated plots, then subjected to analysis of variance, and means were separated using Tukey's HSD (p=0.1). Expected control was calculated using the method of Colby and compared to observed control. See the Table Section for the results of the Field Trials.

[1] = Trial A, 1 DAT, relative to untreated plots

| Structure (SMILES) | % Control [1] | % Control (Trial A, 3 DAT) | % Control (Trial A, 7 DAT) | % Control (Trial A, 10 DAT) | % Control (Trial A, 15 DAT) | % Control (Trial B, 1 DAT) | % Control (Trial B, 3 DAT) | % Control (Trial B, 7 DAT) | % Control (Trial B, 10 DAT) | % Control (Trial B, 15 DAT) | % Control (Trial C, 1 DAT) | % Control (Trial C, 3 DAT) | % Control (Trial C, 7 DAT) | % Control (Trial C, 10 DAT) | % Control (Trial C, 15 DAT) | % Control (Trial D, 1 DAT) | % Control (Trial D, 7 DAT) | % Control (Trial D, 10 DAT) | % Control (Trial D, 15 DAT) |
| --- | --- | --- | --- | --- | --- | --- | --- | --- | --- | --- | --- | --- | --- | --- | --- | --- | --- | --- | --- |
| CC(C)N1C(=O)N(c2ccccc2)CS/C1=N\C(C)(C)C [Buprofezin] | 34.9 a % and 34.9% | 72.4 b % and 72.4% | 72.4 b % and 72.4% | 49.4 b % and 49.4% | 49.0 b % and 49.0% | 24.5 a % and 24.5% | 73.0 b % and 73.0% | 80.2 b % and 80.2% | 63.2 b % and 63.2% | 67.7 b % and 67.7% | 31.2 ab % and 31.2% | 63.2 b % and 63.2% | 61.2 b % and 61.2% | 31.2 b % and 31.2% | 47.8 b % and 47.8% | 78.2 b % and 78.2% | 66.0 b % and 66.0% | 34.0 c % and 34.0% | 47.6 b % and 47.6% |
| CC(c1ccc(C(F)(F)F)nc1)S(C)(=O)=NC#N (centres unmarked) [Sulfoxaflor] | 11.2 b % and 11.2% | 43.5 c % and 43.5% | 32.8 c % and 32.8% | 6.8 c % and 6.9% | 19.3 c % and 19.3% | 29.4 a % and 29.4% | 63.6 b % and 63.6% | 62.8 c % and 62.8% | 48.8 b % and 48.8% | 50.3 c % and 50.3% | 13.5 bc % and 13.5% | 42.4 c % and 42.2% | 57.9 b % and 57.9% | 9.6 b % and 9.6% | 30.1 c % and 30.1% | 71.4 b % and 71.4% | 72.9 b % and 72.9% | 57.5 b % and 57.5% | 51.9 b % and 51.9% |
